Several values for one entry are separate records, joined by “and”; a condition that tells them apart may be missing. Equal values may be shown once. Read-outs that look alike come from different tables or passages of the source.
What was measured:
MeWo = experiment: Photocytotoxicity, MTT assay; format: cell-based, human; conditions: for IC50: Homo sapiens, MeWo, light or radiation study
Method: (§1) For (photo)cytotoxicity assays, stock solutions of porphyrins were prepared in DMSO and dissolved in DMEM to the final concentrations. The porphyrin incubation time was 6h. Irradiation of the cells was with red light (λ = 643 nm) for 30 min (light dose, 3.6 J/cm^2). Nonirradiated cells were used to test the dark toxicity. All measurements were performed in three individual experiments, and the results are shown as the proliferation (%) of the cells and were calculated as IC50 values.
(§2) The cytotoxicity of (oxidopyridyl)porphyrins was assessed by an MTT assay on the HDF, MeWo and A375 cell lines after 6 h of incubation with porphyrins, without irradiation, or after 30 min of irradiation with red light (λ = 643 nm), and under conditions of normoxia or hypoxia. To induce hypoxia, 100 µM of CoCl2 was added at least two hours before the porphyrins. […] Oxygen is also one of the substrates for the activity of prolyl hydroxylases; therefore, in both cases, the result is the blockage of hydroxylation of HIF-1α and, consequently, its increase and stabilisation, which, in the case of CoCl2-induced hypoxia, can be maintained for several hours.

HDF = experiment: Photocytotoxicity, MTT assay; format: cell-based, human; conditions: Homo sapiens, HDF, light or radiation study
Method: as §1, §2

A375 = experiment: Photocytotoxicity, MTT assay; format: cell-based, human; conditions: for IC50: Homo sapiens, A-375, light or radiation study
Method: as §1, §2

[1] = system: HDF, MeWo and A375 cell lines; experiment: (Photo)cytotoxicity MTT assay, statements made for all cell lines; format: cell-based, human
Method: as §1, §2

[2] = N-methylated analogue; cited from earlier work
[3] = cited from earlier work; for ΦISC: N-methyl porphyrin analogues; for τT (lifetime of 3PS*): N-methylated counterparts
[4] = UV-Vis absorption spectra in MeOH; format: physicochemical
Method: (§3) The absorption spectra of (oxidopyridyl)porphyrins were recorded in HPLC grade MeOH on a Cary UV 60 (Agilent Technologies, Santa Clara, CA, USA), in a wavelength range of 300–700 nm. The fluorescence spectra in HPLC grade MeOH were recorded on a Cary Eclipse (Agilent Technologies) in a wavelength range of 500–800 nm after excitation at the Soret band wavelength (λ ~ 420 nm). The slits of the spectrometer were set to a bandpass of 5 nm for the excitation and 5 nm for the emission. To calculate the fluorescence quantum yields, the measurements were conducted on an FS5 Edinburgh Instruments spectrometer. Prior to taking the measurements, the solutions were purged with high-purity N2 for at least 15 min. The absorbance of the solutions was set to A < 0.1 at 405 nm and 550 nm, which settings were used for the excitation process. Emission was recorded from 550 to 800 nm, with slits set to the bandpass corresponding to 2 nm for the excitation, and 3 nm for the emission. Fluorescence quantum yield (ΦFL) was calculated in comparison to the tetraphenylporphyrin (TPP; ΦFL = 0.11 [23]) as a standard, according to Equation (S1) and following an equation previously described elsewhere.

[5] = Laser flash photolysis (LFP), triplet excited state properties; format: physicochemical; conditions: MeOH
Method: Laser flash photolysis (LFP) was performed using an LP980 transient absorption spectrometer (Edinburgh Instruments) equipped with a continuous beam (or pulse mode) Xenon lamp passing through the sample. A nanosecond Nd:YAG laser (Quantel, Q-smart 450, 5 ns pulse duration, 10 Hz, excitation wavelength 355 nm) was then used to excite the sample perpendicular to the lamp beam. The laser beam energy was adjusted to below 5 mJ. The ground state absorbance of the porphyrins in MeOH was adjusted to 0.20–0.25 at 355 nm (the laser excitation wavelength) and the solutions were purged with high-purity N2 for at least 15 min prior to taking the measurements. The samples were prepared for kq determination in an air atmosphere that was N2-purged for 15 min and O2-purged for 15 min before the measurements were taken. The ground state absorption spectra of the samples were also recorded after purging the sample with N2 or O2, and after transient absorption (TAS) measurements were taken to track the differences in every step of the measurement process to ensure that no photoproducts were formed. All measurements were performed at 25 °C in 1 cm quartz cuvettes. Laser flash photolysis was used to measure the kinetics of triplet state depopulation (τT) and triplet-triplet absorption spectra, and to calculate the intersystem crossing quantum yield (ΦISC) and quenching rate constants of triplet excited states by molecular oxygen (kq). To calculate ΦISC, the first step was the calculation of the molar absorption coefficient of the triplet state using the singlet depletion method, completing the first step according to Equation (S2). The ΦISC values were estimated by using a comparative method with TPP (ΦISC = 0.87 in toluene) as the standard. The ΦISC was calculated according to Equation (S3). Triplet excited state lifetimes were determined by fitting the triplet decays to the equation for the mixed first- and second-order decay, as previously described, and the quenching rate constant of a triplet excited state by molecular oxygen was calculated using the Stern–Volmer equation (Equation (S4)).

[6] = Fluorescence decay by time-correlated single-photon counting (TC-SPC); format: physicochemical; conditions: MeOH, N2, λex 405 nm
Method: Time-correlated single-photon counting (TC-SPC) was used to obtain information about fluorescence decays. All measurements were performed on an FS5 Edinburgh Instruments device with a pulsed laser at 405 nm wavelength, which was used for the excitation process (pulse duration 60 ps). Fluorescence signals were monitored at 660 nm over 1023 channels, with a time increment of ≈49 ps/channel. Porphyrins were dissolved in MeOH (HPLC grade), with the absorbance adjusted to 0.1 a.u. at the excitation wavelength, and the solution was degassed with N2 for 15 min before the measurements were taken. All the decays were collected until they reached 3000 counts in the peak channel. A scattering solution, a silica gel suspension in H2O, was used to obtain the instrument response function (IRF). The histograms were analysed using a nonlinear least-squares deconvolution method via the software implemented with the instrument.

[7] = Fluorescence spectra and fluorescence quantum yield in MeOH; format: physicochemical
Method: as §3

[8] = red light 643 nm 30 min, CoCl2-induced hypoxia
[9] = red light 643 nm 30 min, normoxia

## CCCCCCCCCCCCCCCCCC(=O)Nc1ccc(-c2c3nc(c(-c4ccc[n+](C)c4)c4ccc([nH]4)c(-c4ccc[n+](C)c4)c4nc(c(-c5ccc[n+](C)c5)c5ccc2[nH]5)C=C4)C=C3)cc1.[Cl-].[Cl-].[Cl-] [TMPyP3-C17H35, 5-(4-Octadecanamidophenyl)-10,15,20-Tris(N-Methylpyridinium-3-Yl)Porphyrin Trichloride]
MeWo; read-out: IC50 MeWo CoCl2
  IC50: 470 ± 20 nM
MeWo; read-out: IC50 MeWo No CoCl2
  IC50: 330 ± 40 nM
MeWo; [8]
  SI (IC50 (HDF) / IC50 (melanoma cells)) MeWo 100 µM CoCl2: 1.0
MeWo; [9]
  SI (IC50 (HDF) / IC50 (melanoma cells)) MeWo No CoCl2: 1.0
HDF; read-out: IC50 HDF CoCl2
  IC50: 460 ± 140 nM
HDF; read-out: IC50 HDF No CoCl2
  IC50: 330 ± 30 nM
A375; read-out: IC50 A375 CoCl2
  IC50: 230 ± 70 nM
A375; read-out: IC50 A375 No CoCl2
  IC50: 150 ± 80 nM
A375; [8]
  SI (IC50 (HDF) / IC50 (melanoma cells)) A375 100 µM CoCl2: 2.0
A375; [9]
  SI (IC50 (HDF) / IC50 (melanoma cells)) A375 No CoCl2: 2.2
[1]; Homo sapiens, light or radiation study, read-out: IC50 in all the tested cells
  IC50: ≤ 1000 nM
[2]
  ΦFL (fluorescence quantum yield): 0.105
[3]
  ΦISC: 0.38
  τT (lifetime of 3PS*): 0.74 ms

## CC(=O)Nc1ccc(-c2c3nc(c(-c4ccc[n+](C)c4)c4ccc([nH]4)c(-c4ccc[n+](C)c4)c4nc(c(-c5ccc[n+](C)c5)c5ccc2[nH]5)C=C4)C=C3)cc1.[Cl-].[Cl-].[Cl-] [TMPyP3-CH3, 5-(4-Acetamidophenyl)-10,15,20-Tris(N-Methylpyridinium-3-Yl)Porphyrin Trichloride]
MeWo; read-out: IC50 MeWo CoCl2
  IC50: > 100000 nM
MeWo; read-out: IC50 MeWo No CoCl2
  IC50: > 100000 nM
HDF; read-out: IC50 HDF CoCl2
  IC50: > 100000 nM
HDF; read-out: IC50 HDF No CoCl2
  IC50: > 100000 nM
A375; read-out: IC50 A375 CoCl2
  IC50: > 100000 nM
A375; read-out: IC50 A375 No CoCl2
  IC50: > 100000 nM
[2]
  ΦFL (fluorescence quantum yield): 0.072
[3]
  ΦISC: 0.34
  τT (lifetime of 3PS*): 0.77 ms

## CC(=O)Nc1ccc(-c2c3nc(c(-c4ccc[n+]([O-])c4)c4ccc([nH]4)c(-c4ccc[n+]([O-])c4)c4nc(c(-c5ccc[n+]([O-])c5)c5ccc2[nH]5)C=C4)C=C3)cc1 [TOPyP3-CH3, 5-(4-Acetamidophenyl)-10,15,20-tris(1-oxido-3-pyridyl)porphyrin]
[4]
  ε Qx (0-0): 1900 M⁻¹ cm⁻¹
  ε Qx (1-0): 5800 M⁻¹ cm⁻¹
  ε Qy (0-0): 5200 M⁻¹ cm⁻¹
  ε Qy (1-0): 18200 M⁻¹ cm⁻¹
  ε Soret (B): 346900 M⁻¹ cm⁻¹
  λabs Qx (0-0): 645 nm
  λabs Qx (1-0): 588 nm
  λabs Qy (0-0): 545 nm
  λabs Qy (1-0): 510 nm
  λabs Soret (B): 416 nm
MeWo; 6 h incubation, red light 643 nm 30 min, 3.6 J/cm^2, 100 μM CoCl2 at least 2 h before porphyrin, read-out: IC50 MeWo CoCl2
  IC50: > 100000 nM
MeWo; 6 h incubation, red light 643 nm 30 min, 3.6 J/cm^2, normoxia, read-out: IC50 MeWo No CoCl2
  IC50: > 100000 nM
HDF; 6 h incubation, red light 643 nm 30 min, 3.6 J/cm^2, 100 μM CoCl2 at least 2 h before porphyrin, read-out: IC50 HDF CoCl2
  IC50: > 100000 nM
HDF; 6 h incubation, red light 643 nm 30 min, 3.6 J/cm^2, normoxia, read-out: IC50 HDF No CoCl2
  IC50: > 100000 nM
A375; 6 h incubation, red light 643 nm 30 min, 3.6 J/cm^2, 100 μM CoCl2 at least 2 h before porphyrin, read-out: IC50 A375 CoCl2
  IC50: > 100000 nM
A375; 6 h incubation, red light 643 nm 30 min, 3.6 J/cm^2, normoxia, read-out: IC50 A375 No CoCl2
  IC50: > 100000 nM
[1]; 1 µM, irradiation 643 nm, normoxia or CoCl2-induced hypoxia
  phototoxicity / reduction of proliferation at 1 µM: did not appear to reduce the proliferation
[5]
  τT (lifetime of 3PS*): 1.1 ms
[5]; N2-purged, 25 °C
  τT (lifetime of the triplet excited state): 1100 ± 200 μs
[5]; Stern–Volmer
  kq (O2) (quenching rate constant of the triplet excited state by O2): 1.3e+09 M⁻¹ s⁻¹
[5]; comparative method with TPP, estimated
  ΦISC (quantum yield of intersystem crossing): 0.66
[5]; singlet depletion method
  εT-T (molar absorption coefficient of the triplet state): 47 000 M^−1cm^−1
[6]
  contribution of τ1 (% of the decay): 2%
  contribution of τ2 (% of the decay): 98%
  τFL, longer decay time τ2: 8.62 ± 0.02 ns and 8.62 ns
  τFL, short decay time τ1: 0.82 ± 0.08 ns and 0.82 ns
[7]; N2-purged, TPP as reference
  ΦFL (fluorescence quantum yield): 0.050 ± 0.002
[7]; excitation at Soret band
  λFL Q(0,0): 648 nm
  λFL Q(0,1): 713 nm

Reference: PMC12382614, “(Oxidopyridyl)Porphyrins of Different Lipophilicity: Photophysical Properties, ROS Production and Phototoxicity on Melanoma Cells Under CoCl2-Induced Hypoxia” (Antioxidants, 2025)
